pIC50: −log10 of the molar value.
Assays:
human factor Xa (FXa) = target: T1, human factor Xa (FXa) (Homo sapiens, UniProt P00742); experiment: Determination of the factor Xa inhibition (chromogenic substrate); format: biochemical; settings: human FXa 0.5 nmol/l, Pefachrome FXa 150 μmol/l, 25° C., pH 8.3
T1 construct: factor Xa, which is formed from the proenzyme factor X
Procedure: The enzymatic inhibition of human factor Xa (FXa) is measured using the conversion of a chromogenic substrate specific for FXa. Factor Xa cleaves p-nitroaniline from the chromogenic substrate. The determinations are carried out in microtitre plates as follows:
The test substances, in various concentrations, are dissolved in DMSO and incubated for 10 minutes at 25° C. with human FXa (0.5 nmol/l dissolved in 50 mmol/l of Tris buffer [C,C,C-tris(hydroxymethyl)aminomethane], 150 mmol/l of NaCl, 0.1% BSA [bovine serum albumin], pH=8.3). Pure DMSO is used as control. The chromogenic substrate (150 μmol/l Pefachrome® FXa from Pentapharm) is then added. After an incubation time of 20 minutes at 25° C., the extinction at 405 nm is determined.

trypsin = experiment: Determination of the selectivity: trypsin inhibition (chromogenic substrate); format: biochemical, human; settings: trypsin 500 mU/ml, Chromozym Trypsin, 37° C., pH 8.0
Procedure: (§1) To assess selective FXa inhibition, the test substances are examined for their inhibition of other human serine proteases such as trypsin and plasmin. To determine the enzymatic activity of trypsin (500 mU/ml) and plasmin (3.2 nmol/l), these enzymes are dissolved in Tris buffer (100 mmol/l, 20 mmol/l CaCl2, pH=8.0) and incubated with test substance or solvent for 10 minutes. The enzymatic reaction is then started by adding the corresponding specific chromogenic substrates (Chromozym Trypsin® and Chromozym Plasmin®; from Roche Diagnostics) and the extinction at 405 nm is determined after 20 minutes. All determinations are carried out at 37° C.

plasmin = target: T2, plasmin (Homo sapiens, UniProt P00747); experiment: Determination of the selectivity: plasmin inhibition (chromogenic substrate); format: biochemical; settings: plasmin 3.2 nmol/l, Chromozym Plasmin, 37° C., pH 8.0
T2 construct: To determine the enzymatic activity of trypsin (500 mU/ml) and plasmin (3.2 nmol/l)
Procedure: as §1

T1 sequence (P00742 235-488 limits assumed): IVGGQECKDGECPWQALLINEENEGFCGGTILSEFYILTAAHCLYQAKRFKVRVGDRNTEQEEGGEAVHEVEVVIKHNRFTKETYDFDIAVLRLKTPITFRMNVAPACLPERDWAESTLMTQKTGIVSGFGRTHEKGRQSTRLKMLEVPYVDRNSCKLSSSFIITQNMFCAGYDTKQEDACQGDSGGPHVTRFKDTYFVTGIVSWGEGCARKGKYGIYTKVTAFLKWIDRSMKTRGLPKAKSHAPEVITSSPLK
T1 sequence (P00742 41-179 partner limits assumed): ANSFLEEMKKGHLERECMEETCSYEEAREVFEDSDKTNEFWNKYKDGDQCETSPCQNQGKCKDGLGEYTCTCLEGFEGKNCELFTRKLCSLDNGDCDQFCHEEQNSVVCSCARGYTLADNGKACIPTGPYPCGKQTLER
T2 sequence (P00747 581-810 limits assumed): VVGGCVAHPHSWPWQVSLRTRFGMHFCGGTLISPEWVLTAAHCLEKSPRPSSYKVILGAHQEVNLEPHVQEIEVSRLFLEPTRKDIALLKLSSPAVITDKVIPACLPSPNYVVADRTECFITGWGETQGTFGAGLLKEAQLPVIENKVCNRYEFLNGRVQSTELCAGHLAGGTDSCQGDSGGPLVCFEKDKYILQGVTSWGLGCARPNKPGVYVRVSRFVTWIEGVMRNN
T2 sequence (P00747 97-580 partner limits assumed): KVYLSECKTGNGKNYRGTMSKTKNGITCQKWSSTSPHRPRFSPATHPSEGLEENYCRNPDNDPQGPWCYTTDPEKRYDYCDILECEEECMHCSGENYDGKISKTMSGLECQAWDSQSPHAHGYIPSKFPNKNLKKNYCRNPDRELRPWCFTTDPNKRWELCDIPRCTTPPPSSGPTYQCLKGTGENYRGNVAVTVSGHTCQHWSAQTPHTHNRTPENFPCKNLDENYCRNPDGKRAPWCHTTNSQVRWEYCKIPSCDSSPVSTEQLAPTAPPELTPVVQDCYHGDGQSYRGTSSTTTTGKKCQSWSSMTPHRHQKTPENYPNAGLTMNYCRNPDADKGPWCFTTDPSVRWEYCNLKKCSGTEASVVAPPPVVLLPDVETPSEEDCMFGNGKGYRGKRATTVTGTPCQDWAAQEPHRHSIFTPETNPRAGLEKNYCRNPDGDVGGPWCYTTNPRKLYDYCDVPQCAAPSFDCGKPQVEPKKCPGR

pIC50 (human factor Xa (FXa)): 8.27
pIC50 (trypsin): < 5.00
pIC50 (plasmin): < 5.00
SMILES: N=C1O[C@@H](CNC(=O)c2ccc(Cl)s2)CN1c1ccc(N2CCOCC2=O)cc1 [Example 1, 5-Chloro-N-({(5S)-2-imino-3-[4-(3-oxomorpholin-4-yl)phenyl]-1,3-oxazolidin-5-yl}methyl)-thiophene-2-carboxamide]

Source: patent US20100048548A1, “IMINO-OXAZOLIDINES AND USE THEREOF” (Bayer HealthCare AG, priority 2005, published 2010)
